The record followed here is US11459336B2, “Pyrazine carbamates and their use as GluN2B receptor modulators” (JANSSEN PHARMACEUTICA NV, priority 2019, dated 2022).

Each structure is given as a SMILES string.

Series [1] deals with T1, human GluN1/GluN2B NMDA receptors (Homo sapiens, UniProt Q05586+Q13224).
T1 construct: expressed in transfected cells
As to the kind of experiment: Calcium flux (FLIPR) assay on cloned human GluN1/GluN2B ion channels expressed in mammalian cells, standard assay. It is filed as cell-based. Particulars: glutamate ~EC40, 10 μM glycine, stable cell line with Tet-On induced expression. How it is done: (§1) NMDA receptors are ion channels that are highly permeable to Ca^2+ ions, rendering it possible to monitor NMDA receptor function using cell-based calcium flux assay. In this assay, co-agonists glutamate and glycine are added to cells heterologously expressing human GluN1/GluN2B NMDA receptors to initiate cellular Ca^2+ influx. The time course of the changes in intracellular calcium is measured using a fluorescent dye and a FLIPR (Fluorometric Imaging Plate Reader) device.
(§2) Twenty four hours before measurements, the expression of the NMDA receptors in the stable cell line is induced with Tet-On inducible system in the presence of a non-selective NMDA receptor blocker. On the day of the experiment, cell culture media is carefully washed and the cells are loaded with Calcium 5 Dye Kit (Molecular Devices) in dye loading buffer containing 137 mM NaCl, 4 mM KCl, 2 mM CaCl2, 0.5 mM MgCl2 (standard assay) or 1.5 mM MgCl2 (HTS assay), 10 mM HEPES and 5 mM D-glucose; pH 7.4. After 1 h incubation at the room temperature, the dye is washed away with the assay buffer (137 mM NaCl (standard assay) or 150 mM (HTS assay), 4 mM KCl (standard assay) or 3 mM (HTS assay), 2 mM CaCl2, 0.01 mM EDTA, 10 mM HEPES and 5 mM D-glucose; pH 7.4) In the FLIPR TETRA reader, various concentrations of the test compounds are added to the cells for 5 min while fluorescence is monitored to detect potential agonist activity. Next, co-agonists, glutamate and glycine are added for another 5 minutes. The concentration of glutamate corresponding to ˜EC40 (standard assay) or EC40 (HTS assay) is used to maximize the assay's signal window and ability to detect NMDA receptor antagonists and negative allosteric modulators. A saturating concentration (10 μM) of glycine is also present in the assay. A non-selective NMDA receptor antagonist, (+)MK-801 is used as a positive control for antagonist activity. The fluorescent signal in the presence of test compounds is quantified and normalized to the signal defined by the appropriate control wells.

Series [2] in a line: Liver microsomal stability assay (extraction ratio). It is filed as in vitro ADME. Particulars: test compound 1 μM; 0.5 mg/mL liver microsomes, 1 mM NADPH, 37° C.; species not given (method: mouse, rat, and human). As for the experimental part: Microsomal stability studies (see, Chrovian et al, “1H-Pyrrolo[3,2-b]pyridine GluN2B-Selective Negative Allosteric Modulators”. ACS Med Chem Lett. 2019 Jan. 10; 10(3):261-266) were conducted on a Biomek® FX Robotic Liquid Handling Workstation (Beckman Coulter, Brea, Calif.), which consists of a 96-channel pipette head, a 12-position workstation deck, and a plate incubator. Test compounds (1 μM) were spiked in a reaction mix consisting of 100 mM potassium phosphate buffer (pH 7.4), 3 mM MgCl2, and 0.5 mg/mL liver microsomes from mouse, rat, and human (BD Gentest). The reaction was brought to 37° C. and initiated by adding NADPH to a final concentration of 1 mM. After mixing on the platedeck, 50 μL aliquots were excised from the reaction plate at 0, 5, 10, 20, 40, and 60 min and quenched with four volumes of acetonitrile spiked with […] of the internal standard phenytoin. Quenched plates were centrifuged at 5700 rpm for 10 min at 4° C., and supernatant was diluted 1:3 in water before LC/MS/MS analysis. The compound half-lives were derived from plots of the ln of percent remaining compound over time to determine the intrinsic clearance. The predicted hepatic clearance was derived from the intrinsic clearance value using equations from the well-stirred model (Current Drug Metabolism, 2008, 9, 940-951), where no correction was made plasma protein binding and the blood to plasma concentration ratio was assumed to be one. The extraction ratio (ER) was calculated by dividing the predicted hepatic clearance by species blood flow (Q), where Q is 90, 55, and 21.7 mL/min/kg for mouse, rat and human, respectively.

Series [3] has as its target T2, human GluN1/GluN2B NMDA receptors (Homo sapiens, UniProt Q13224).
T2 construct: expressed in transfected cells
As to the kind of experiment: Calcium flux (FLIPR) assay on cloned human GluN1/GluN2B ion channels expressed in mammalian cells, standard assay. It is filed as cell-based. The following applies: glutamate ~EC40, 10 μM glycine, stable cell line with Tet-On induced expression. How it is done:
as §1, §2

T1 sequence (Q13224 27-1484, other chains not shown): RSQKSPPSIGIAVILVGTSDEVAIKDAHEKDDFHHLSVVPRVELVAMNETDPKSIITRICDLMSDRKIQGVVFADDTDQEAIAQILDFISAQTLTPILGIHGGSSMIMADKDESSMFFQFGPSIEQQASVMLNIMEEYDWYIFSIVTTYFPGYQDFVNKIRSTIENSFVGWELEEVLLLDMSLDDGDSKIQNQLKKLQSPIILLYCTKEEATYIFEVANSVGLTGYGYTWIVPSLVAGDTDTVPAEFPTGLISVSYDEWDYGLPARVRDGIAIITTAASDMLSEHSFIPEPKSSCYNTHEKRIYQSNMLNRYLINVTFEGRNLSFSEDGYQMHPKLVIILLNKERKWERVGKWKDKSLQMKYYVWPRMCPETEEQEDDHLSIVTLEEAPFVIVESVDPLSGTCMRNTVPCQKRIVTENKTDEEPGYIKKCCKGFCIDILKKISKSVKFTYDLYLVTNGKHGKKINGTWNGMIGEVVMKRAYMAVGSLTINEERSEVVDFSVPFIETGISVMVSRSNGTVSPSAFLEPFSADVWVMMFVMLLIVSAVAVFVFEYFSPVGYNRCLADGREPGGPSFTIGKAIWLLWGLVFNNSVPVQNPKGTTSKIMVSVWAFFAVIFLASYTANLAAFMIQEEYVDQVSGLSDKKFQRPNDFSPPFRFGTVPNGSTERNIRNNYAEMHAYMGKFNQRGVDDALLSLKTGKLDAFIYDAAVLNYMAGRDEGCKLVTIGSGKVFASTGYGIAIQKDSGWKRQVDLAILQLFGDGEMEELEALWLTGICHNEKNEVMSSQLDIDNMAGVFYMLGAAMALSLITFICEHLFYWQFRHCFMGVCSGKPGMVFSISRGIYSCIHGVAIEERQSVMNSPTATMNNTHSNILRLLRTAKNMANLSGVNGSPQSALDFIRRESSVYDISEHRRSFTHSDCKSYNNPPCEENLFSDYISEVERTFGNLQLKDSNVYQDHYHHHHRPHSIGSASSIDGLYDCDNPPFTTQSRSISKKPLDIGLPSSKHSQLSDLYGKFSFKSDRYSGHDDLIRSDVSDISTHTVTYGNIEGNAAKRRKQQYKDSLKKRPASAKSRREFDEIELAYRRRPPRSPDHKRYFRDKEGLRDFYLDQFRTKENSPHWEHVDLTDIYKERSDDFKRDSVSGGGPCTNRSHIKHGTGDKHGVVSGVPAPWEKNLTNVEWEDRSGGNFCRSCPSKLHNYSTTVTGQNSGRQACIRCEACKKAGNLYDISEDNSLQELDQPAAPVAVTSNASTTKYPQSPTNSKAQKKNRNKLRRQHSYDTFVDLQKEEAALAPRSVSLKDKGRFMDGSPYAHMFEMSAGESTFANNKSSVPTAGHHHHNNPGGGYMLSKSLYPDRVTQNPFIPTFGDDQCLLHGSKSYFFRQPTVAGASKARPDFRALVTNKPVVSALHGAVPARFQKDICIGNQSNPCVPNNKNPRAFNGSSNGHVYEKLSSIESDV
T2 sequence (Q13224 27-1484, other chains not shown): as above

Turning to `CNC(=O)C1CN(Cc2cncc(-c3ccc(F)c(C(F)F)c3)n2)C(=O)O1` (racemic) [Example 59, (R/S)-3-[[6-[3-(Difluoromethyl)-4-fluoro-phenyl]pyrazin-2-yl]methyl]-N-methyl-2-oxo-oxazolidine-5-carboxamide], the IC50 in series [1] was greater than 3000 nM. Moreover, the “Extraction Ratio @ 1 μM” value in series [2] is 0.18.
For the compound `CNC(=O)C1CN(Cc2cncc(-c3ccc(F)c(C(C)(F)F)c3)n2)C(=O)O1` (racemic) [Example 63, (R/S)-3-[[6-[3-(1,1-Difluoroethyl)-4-fluoro-phenyl]pyrazin-2-yl]methyl]-N-methyl-2-oxo-oxazolidine-5-carboxamide], the IC50 in series [1] was greater than 3000 nM.
For the compound `CC(F)(F)c1cc(-c2cncc(CN3CC(C(=O)N4CCC4)OC3=O)n2)ccc1F` (racemic) [Example 64, (R/S)-5-(Azetidine-1-carbonyl)-3-[[6-[3-(1,1-difluoroethyl)-4-fluoro-phenyl]pyrazin-2-yl]methyl]oxazolidin-2-one], the IC50 in series [1] was greater than 3000 nM.
`CN(C)C(=O)C1CN(Cc2cncc(-c3ccc(F)c(C(F)F)c3)n2)C(=O)O1` (racemic) [Example 65, (R/S)-3-[[6-[3-(Difluoromethyl)-4-fluoro-phenyl]pyrazin-2-yl]methyl]-N,N-dimethyl-2-oxo-oxazolidine-5-carboxamide]: in series [1], the IC50 is greater than 3000 nM.
As for `CN(C)C(=O)C1CN(Cc2cncc(-c3ccc(F)c(OC(F)F)c3)n2)C(=O)O1` (racemic) [Example 66, (R/S)-3-[[6-[3-(Difluoromethoxy)-4-fluoro-phenyl]pyrazin-2-yl]methyl]-N,N-dimethyl-2-oxo-oxazolidine-5-carboxamide], the half-inhibitory concentration (IC50) in series [1] was 141 nM.
As for `O=C1OC2(CC2)CN1Cc1cncc(-c2ccc(F)c(C(F)F)c2)n1` [Example 3, 5-[[6-[3-(Difluoromethyl)-4-fluoro-phenyl]pyrazin-2-yl]methyl]-7-oxa-5-azaspiro[2.4]heptan-6-one], in series [3], the IC50 is 13 nM. For the same compound, in series [2], the “Extraction Ratio @ 1 μM” value was found to be 0.05.
For the compound `C[C@H]1COC(=O)N1Cc1cncc(-c2ccc(F)c(C(F)F)c2)n1` [Example 8, (4S)-3-[[6-[3-(Difluoromethyl)-4-fluoro-phenyl]pyrazin-2-yl]methyl]-4-methyl-oxazolidin-2-one], the IC50 in series [3] is 872 nM. Besides, the “Extraction Ratio @ 1 μM” value in series [2] is on record as 0.06.
For the compound `Cc1ncc(-c2ccc(F)c(C(F)F)c2)nc1CN1C(=O)OC[C@H]1C` [Example 11, (4R)-3-[[6-[3-(Difluoromethyl)-4-fluoro-phenyl]-3-methyl-pyrazin-2-yl]methyl]-4-methyl-oxazolidin-2-one], the IC50 in series [3] came to 192 nM. Moreover, in series [2], the “Extraction Ratio @ 1 μM” value is 0.18.
As to `Cc1ncc(-c2ccc(F)c(C(F)F)c2)nc1CN1CCCOC1=O` [Example 15, 3-[[6-[3-(Difluoromethyl)-4-fluoro-phenyl]-3-methyl-pyrazin-2-yl]methyl]-1,3-oxazinan-2-one], the IC50 in series [3] is 65 nM. In series [2], the “Extraction Ratio @ 1 μM” value is given as 0.06.
